Experiments:
Carboplatin = compound: C1CC(C1)(C(=O)[O-])C(=O)[O-].N.N.[Pt+2] [Carboplatin]; conditions: max 10 µM
Summary of the method: (§1)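 In 1536-well plates, cancer cell lines in 7.5 μl DMEM/F12 or RPMI with 10% FBS spent 24 hours at 37°C and 5% CO2 and were then dosed for 72 hours with final DMSO typically 0.2%. Viability was read by CellTiter-Glo 2.0 luminescence and scaled between blank-well and DMSO-well means. The single-agent IC50 was fitted from dose responses using a logistic curve in a non-linear mixed effects model, and that logistic curve had two parameters.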

AZD5363 = compound: C1CN(CCC1(C(=O)N[C@@H](CCO)C2=CC=C(C=C2)Cl)N)C3=NC=NC4=C3C=CN4 [AZD5363]; conditions: max 10 µM
Summary of the method: as §1

AZD1775 = compound: C=CCn1c(=O)c2cnc(Nc3ccc(N4CCN(C)CC4)cc3)nc2n1-c1cccc(C(C)(C)O)n1 [AZD1775]; conditions: max 3 µM
Summary of the method: as §1

Trametinib = compound: CC(=O)Nc1cccc(-n2c(=O)n(C3CC3)c(=O)c3c(Nc4ccc(I)cc4F)n(C)c(=O)c(C)c32)c1 [Trametinib]; conditions: max 1 µM
Summary of the method: as §1

Paclitaxel = compound: CC(=O)O[C@H]1C(=O)[C@@]2(C)[C@H]([C@H](OC(=O)c3ccccc3)[C@]3(O)C[C@H](OC(=O)[C@H](O)[C@@H](NC(=O)c4ccccc4)c4ccccc4)C(C)=C1C3(C)C)[C@]1(OC(C)=O)CO[C@@H]1C[C@@H]2O [Paclitaxel]; conditions: max 3 µM
Summary of the method: as §1

Palbociclib = compound: CC(=O)c1c(C)c2cnc(Nc3ccc(N4CCNCC4)cn3)nc2n(C2CCCC2)c1=O [Palbociclib]; conditions: max 10 µM
Summary of the method: as §1

AZD1390 = compound: CC(C)n1c(=O)n(C)c2cnc3cc(F)c(-c4ccc(OCCCN5CCCCC5)nc4)cc3c21 [AZD1390]; conditions: max 0.3 µM
Summary of the method: as §1

Venetoclax = compound: CC1(C)CCC(CN2CCN(c3ccc(C(=O)NS(=O)(=O)c4ccc(NCC5CCOCC5)c([N+](=O)[O-])c4)c(Oc4cnc5[nH]ccc5c4)c3)CC2)=C(c2ccc(Cl)cc2)C1 [Venetoclax]; conditions: max 1 µM
Summary of the method: as §1

Dasatinib = compound: CC1=C(C(=CC=C1)Cl)NC(=O)C2=CN=C(S2)NC3=CC(=NC(=N3)C)N4CCN(CC4)CCO [Dasatinib]; conditions: max 2 µM
Summary of the method: as §1

SG3199 = compound: CC1=CN2[C@@H](C1)C=NC3=CC(=C(C=C3C2=O)OC)OCCCCCOC4=C(C=C5C(=C4)N=C[C@@H]6CC(=CN6C5=O)C)OC [SG3199]; conditions: max 0.001 µM
Summary of the method: as §1

AZD2811 = compound: CCN(CCO)CCCOc1ccc2c(Nc3cc(CC(=O)Nc4cccc(F)c4)[nH]n3)ncnc2c1 [AZD2811]; conditions: max 1 µM
Summary of the method: as §1

SN-38 = compound: CCc1c2c(nc3ccc(O)cc13)-c1cc3c(c(=O)n1C2)COC(=O)[C@]3(O)CC [SN-38]; conditions: max 0.3 µM
Summary of the method: as §1

AZD0156 = compound: CN(C)CCCOc1ccc(-c2ccc3ncc4c(c3c2)n(C2CCOCC2)c(=O)n4C)cn1 [AZD0156]; conditions: max 3 µM
Summary of the method: as §1

AZD4320 = compound: CN(CC[C@H](CSC1=CC=CC=C1)NC2=C(C=C(C=C2)S(=O)(=O)NC(=O)C3=CC=C(C=C3)N4CCC(CC4)[C@H](C5=CC=CC=C5C6=CC=C(C=C6)Cl)O)S(=O)(=O)C(F)(F)F)CCO [AZD4320]; conditions: max 1 µM
Summary of the method: as §1

Alisertib = compound: COc1cc(Nc2ncc3c(n2)-c2ccc(Cl)cc2C(c2c(F)cccc2OC)=NC3)ccc1C(=O)O [Alisertib]; conditions: max 10 µM
Summary of the method: as §1

Etoposide = compound: COc1cc([C@@H]2c3cc4c(cc3[C@@H](O[C@@H]3O[C@@H]5CO[C@@H](C)O[C@H]5[C@H](O)[C@H]3O)[C@H]3COC(=O)[C@H]23)OCO4)cc(OC)c1O [Etoposide]; conditions: max 10 µM
Summary of the method: as §1

Gefitinib = compound: COc1cc2ncnc(Nc3ccc(F)c(Cl)c3)c2cc1OCCCN1CCOCC1 [Gefitinib]; conditions: max 10 µM
Summary of the method: as §1

Prexasertib = compound: COc1cccc(OCCCN)c1-c1cc(Nc2cnc(C#N)cn2)n[nH]1 [Prexasertib]; conditions: max 1 µM
Summary of the method: as §1

Doxorubicin = compound: COc1cccc2c1C(=O)c1c(O)c3c(c(O)c1C2=O)C[C@@](O)(C(=O)CO)C[C@@H]3O[C@H]1C[C@H](N)[C@H](O)[C@H](C)O1 [Doxorubicin]; conditions: max 1 µM
Summary of the method: as §1

AZD5153 = compound: COc1nnc2ccc(N3CCC(c4ccc(OCCN5CCN(C)C(=O)[C@H]5C)cc4)CC3)nn12 [AZD5153]; conditions: max 1 µM
Summary of the method: as §1

Lapatinib = compound: CS(=O)(=O)CCNCc1ccc(-c2ccc3ncnc(Nc4ccc(OCc5cccc(F)c5)c(Cl)c4)c3c2)o1 [Lapatinib]; conditions: max 10 µM
Summary of the method: as §1

AZD8186 = compound: C[C@@H](Nc1cc(F)cc(F)c1)c1cc(C(=O)N(C)C)cc2c(=O)cc(N3CCOCC3)oc12 [AZD8186]; conditions: max 10 µM
Summary of the method: as §1

Crizotinib = compound: C[C@@H](Oc1cc(-c2cnn(C3CCNCC3)c2)cnc1N)c1c(Cl)ccc(F)c1Cl [Crizotinib]; conditions: max 10 µM
Summary of the method: as §1

Savolitinib = compound: C[C@@H](c1ccc2nccn2c1)n1nnc2ncc(-c3cnn(C)c3)nc21 [Savolitinib]; conditions: max 1 µM
Summary of the method: as §1

AZD6738 = compound: C[C@@H]1COCCN1C2=NC(=NC(=C2)C3(CC3)[S@](=N)(=O)C)C4=C5C=CNC5=NC=C4 [AZD6738]; conditions: max 10 µM
Summary of the method: as §1

AZD5991 = compound: Cc1c2c(nn1C)CSCc1cc(n(C)n1)CSc1cc(c3ccccc3c1)OCCCc1c(C(=O)O)n(C)c3c-2c(Cl)ccc13 [AZD5991]; conditions: max 1 µM
Summary of the method: as §1

AZD7648 = compound: Cc1cc2ncnn2cc1Nc1ncc2c(n1)n(C1CCOCC1)c(=O)n2C [AZD7648]; conditions: max 10 µM
Summary of the method: as §1

Taselisib = compound: Cc1nc(-c2cn3c(n2)-c2ccc(-c4cnn(C(C)(C)C(N)=O)c4)cc2OCC3)n(C(C)C)n1 [Taselisib]; conditions: max 10 µM
Summary of the method: as §1

Selumetinib = compound: Cn1cnc2c(F)c(Nc3ccc(Br)cc3Cl)c(C(=O)NOCCO)cc21 [Selumetinib]; conditions: max 10 µM
Summary of the method: as §1

SRA737 = compound: N#Cc1cnc(Nc2cc(NC[C@H]3CNCCO3)c(C(F)(F)F)cn2)cn1 [SRA737]; conditions: max 10 µM
Summary of the method: as §1

MK-2206 = compound: NC1(c2ccc(-c3nc4ccn5c(=O)[nH]nc5c4cc3-c3ccccc3)cc2)CCC1 [MK-2206]; conditions: max 10 µM
Summary of the method: as §1

Gemcitabine = compound: Nc1ccn([C@@H]2O[C@H](CO)[C@@H](O)C2(F)F)c(=O)n1 [Gemcitabine]; conditions: max 0.3 µM
Summary of the method: as §1

[1] = compound: O=C(Nc1ccc2[nH]nc(-c3ccncc3)c2c1)[C@@H]1CCN(CC(=O)N2CCN(c3ccc(-c4ncccn4)cc3)CC2)C1; conditions: max 5 µM
Summary of the method: as §1

Olaparib = compound: O=C(c1cc(Cc2n[nH]c(=O)c3ccccc23)ccc1F)N1CCN(C(=O)C2CC2)CC1 [Olaparib]; conditions: max 10 µM
Summary of the method: as §1

5-Fluorouracil = compound: O=c1[nH]cc(F)c(=O)[nH]1 [5-Fluorouracil]; conditions: max 20 µM
Summary of the method: as §1

Row | Cell Line | IC50, cell viability 72 h (Carboplatin) [nM] | IC50, cell viability 72 h (AZD5363) [nM] | IC50, cell viability 72 h (AZD1775) [nM] | IC50, cell viability 72 h (Trametinib) [nM] | IC50, cell viability 72 h (Paclitaxel) [nM] | IC50, cell viability 72 h (Palbociclib) [nM] | IC50, cell viability 72 h (AZD1390) [nM] | IC50, cell viability 72 h (Venetoclax) [nM] | IC50, cell viability 72 h (Dasatinib) [nM] | IC50, cell viability 72 h (SG3199) [nM] | IC50, cell viability 72 h (AZD2811) [nM] | IC50, cell viability 72 h (SN-38) [nM] | IC50, cell viability 72 h (AZD0156) [nM] | IC50, cell viability 72 h (AZD4320) [nM] | IC50, cell viability 72 h (Alisertib) [nM] | IC50, cell viability 72 h (Etoposide) [nM] | IC50, cell viability 72 h (Gefitinib) [nM] | IC50, cell viability 72 h (Prexasertib) [nM] | IC50, cell viability 72 h (Doxorubicin) [nM] | IC50, cell viability 72 h (AZD5153) [nM] | IC50, cell viability 72 h (Lapatinib) [nM] | IC50, cell viability 72 h (AZD8186) [nM] | IC50, cell viability 72 h (Crizotinib) [nM] | IC50, cell viability 72 h (Savolitinib) [nM] | IC50, cell viability 72 h (AZD6738) [nM] | IC50, cell viability 72 h (AZD5991) [nM] | IC50, cell viability 72 h (AZD7648) [nM] | IC50, cell viability 72 h (Taselisib) [nM] | IC50, cell viability 72 h (Selumetinib) [nM] | IC50, cell viability 72 h (SRA737) [nM] | IC50, cell viability 72 h (MK-2206) [nM] | IC50, cell viability 72 h (Gemcitabine) [nM] | IC50, cell viability 72 h [1] [nM] | IC50, cell viability 72 h (Olaparib) [nM] | IC50, cell viability 72 h (5-Fluorouracil) [nM]
1 | Hs-578-T (Breast Carcinoma) | > 10000 | 2370 | 394 | > 1000 | < 3 | > 10000 | > 300 | > 1000 | 66.8 | > 1 | 435 | > 300 | > 3000 | > 1000 | 3970 | > 10000 | > 10000 | 12.3 | 300 | 156 | > 10000 | 1710 | > 10000 | > 1000 | 1810 | > 1000 | > 10000 | 2190 | > 10000 | > 10000 | 5650 | > 300 | > 5000 | > 10000 | > 20000
2 | KELLY (Neuroblastoma) | > 10000 | > 10000 | 64.5 | > 1000 | 10.8 | > 10000 | > 300 | 204 | > 2000 | > 1 | 333 | 7.25 | > 3000 | > 1000 | 237 | 2530 | > 10000 | 1.18 | 142 | > 1000 | 7360 | > 10000 | 1980 | > 1000 | 1530 | 378 | > 10000 | > 10000 | > 10000 | 199 | > 10000 | 3.87 | > 5000 | > 10000 | 12600

Reference: the supplement of paper PMC11061612
